# Reference: ChEMBL document CHEMBL5036312, “From the Design to the In Vivo Evaluation of Benzohomoadamantane-Derived Soluble Epoxide Hydrolase Inhibitors for the Treatment of Acute Pancreatitis” (J Med Chem, 2021)
# The source made the active and inactive calls. The rule behind the calls is not given here.
# Key:
# SH-SY5Y = assay: cells; conditions: Homo sapiens, 24 h, read-out: LD50
# Description: Cytotoxicity against human SH-SY5Y cells assessed as lethal dose measured after 24 hrs by propidium iodide staining based fluorescent assay
# [1] = Drug uptake in overnight fasted pancreas of cerulein-induced acute pancreatitis C57BL/6 mouse model at 0.1 mg/kg, ip dosed 14 hrs after cerulein injection and measured 10 hrs after compound administration; type: ADME, organism-based; conditions: in vivo
# Mus musculus [2] = assay: Anti-inflammatory activity against overnight fasted cerulein-induced acute pancreatitis C57BL/6 mouse model assessed as reversal of reversal of neutrophil infiltration at 0.3 mg/kg, ip dosed 14 hrs after cerulein injection and measured 10 hrs after compound administration; type: functional, organism-based
# [3] = Toxicity in overnight fasted C57BL/6 mouse model of cerulein-induced acute pancreatitis assessed as reversal of edema at 0.3 mg/kg, ip dosed 14 hrs after cerulein injection and measured 10 hrs after compound administration; type: organism-based; conditions: in vivo
# Mus musculus [4] = assay: Anti-inflammatory activity against overnight fasted cerulein-induced acute pancreatitis C57BL/6 mouse model assessed as reduction in inflammatory cells at 0.1 to 0.3 mg/kg, ip dosed 14 hrs after cerulein injection and measured 10 hrs after compound administration; type: functional, organism-based; conditions: dose 0.1-0.3 mg/kg
# [5] = Toxicity in overnight fasted C57BL/6 mouse model of cerulein-induced acute pancreatitis assessed as increase in body weight at 0.1 mg/kg, ip dosed 14 hrs after cerulein injection and measured 10 hrs after compound administration; type: organism-based; conditions: in vivo
# Mus musculus [6] = assay: Anti-inflammatory activity against overnight fasted cerulein-induced acute pancreatitis C57BL/6 mouse model assessed as reduction in severity of pancreatitis at 0.1 to 0.3 mg/kg, ip dosed 14 hrs after cerulein injection and measured 10 hrs after compound administration; type: functional, organism-based; conditions: dose 0.1-0.3 mg/kg
# Mus musculus [7] = assay: Anti-inflammatory activity against overnight fasted cerulein-induced acute pancreatitis C57BL/6 mouse model assessed as reduction in parenchymal atrophy at 0.1 to 0.3 mg/kg, ip dosed 14 hrs after cerulein injection and measured 10 hrs after compound administration; type: functional, organism-based; conditions: dose 0.1-0.3 mg/kg
# Mus musculus [8] = assay: Anti-inflammatory activity against overnight fasted cerulein-induced acute pancreatitis C57BL/6 mouse model assessed as reversal of pancreatic damage at 0.3 mg/kg, ip dosed 14 hrs after cerulein injection and measured 10 hrs after compound administration; type: functional, organism-based
# [9] = Toxicity in overnight fasted C57BL/6 mouse model of cerulein-induced acute pancreatitis assessed as increase in body weight at 0.3 mg/kg, ip dosed 14 hrs after cerulein injection and measured 10 hrs after compound administration; type: organism-based; conditions: in vivo
smiles,measurement,setting,value
O=C(NC12CC3CC(F)(CC(C1)c1ccccc13)C2)N[C@H]1CC[C@H](Oc2ccc(C(=O)O)cc2)CC1,CC50,SH-SY5Y,> 100 µM
CC12CC3CC(NC(=O)N[C@H]4CC[C@H](Oc5ccc(C(=O)O)cc5)CC4)(CC(C1)c1ccccc13)C2,CC50,SH-SY5Y,> 100 µM
O=C(NC12CC3CC(Cl)(CC(C1)c1ccccc13)C2)N[C@H]1CC[C@H](Oc2ccc(C(=O)O)cc2)CC1,Drug uptake,[1],Not Active
same,CC50,SH-SY5Y,> 100 µM
same,Activity,Mus musculus [2],Active
same,Activity,[3],Non-Toxic
same,Activity,Mus musculus [4],Active
same,Activity,[5],Toxic
same,Activity,Mus musculus [6],Active
same,Activity,Mus musculus [7],Active
same,Activity,Mus musculus [8],Active
same,Activity,[9],Toxic
